This is an account of results in PMC2991053 (Chemistry & biology, 2010).

For orientation: Ki means the dissociation constant of the complex between target and ligand, obtained from inhibition or displacement.

One assay deals with LdIMPDH (Leishmania donovani, UniProt P21620). The assay can be described thus: IMPDH inhibition, L. donovani enzyme. Format: biochemical.
The target of another assay is EcIMPDH-S250A (Escherichia coli, UniProt P0ADG7, S250A). Put plainly: biochemical.
In a further assay the target is SpIMPDH (Streptococcus pyogenes, UniProt P0C0H6). Put plainly: biochemical.
The next assay addresses EcIMPDH (Escherichia coli, UniProt P0ADG7). The assay can be described thus: IMPDH inhibition, E. coli enzyme. It is filed as biochemical.
The target of a further assay is TfIMPDH (Tritrichomonas foetus, UniProt P50097). As to conditions: cited from earlier work; for Ki: TfIMPDH, ref Riera, et al., 2008.
The target in a further assay is T1, CpIMPDH (Cryptosporidium parvum, UniProt Q8T6T2).
T1 sequence (Q8T6T2 1-400): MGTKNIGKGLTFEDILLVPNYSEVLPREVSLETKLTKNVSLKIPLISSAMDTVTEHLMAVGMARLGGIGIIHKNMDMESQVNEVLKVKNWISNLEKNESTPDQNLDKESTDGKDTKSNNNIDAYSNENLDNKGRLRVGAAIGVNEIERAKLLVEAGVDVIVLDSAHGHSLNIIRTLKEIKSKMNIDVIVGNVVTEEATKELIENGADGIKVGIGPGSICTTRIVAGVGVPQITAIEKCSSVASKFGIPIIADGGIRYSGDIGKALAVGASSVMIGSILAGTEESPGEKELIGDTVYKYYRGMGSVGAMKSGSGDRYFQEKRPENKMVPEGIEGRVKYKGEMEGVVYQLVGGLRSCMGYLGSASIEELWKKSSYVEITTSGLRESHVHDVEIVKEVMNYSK
As to conditions: cited from earlier work.

A further assay concerns the target EcIMPDH-S250A/L444Y (Escherichia coli, UniProt P0ADG7, L444Y/S250A). The assay can be described thus: biochemical.
The target of another assay is T2, BbIMPDH (Borreliella burgdorferi, UniProt P49058).
T2 sequence (P49058 1-404): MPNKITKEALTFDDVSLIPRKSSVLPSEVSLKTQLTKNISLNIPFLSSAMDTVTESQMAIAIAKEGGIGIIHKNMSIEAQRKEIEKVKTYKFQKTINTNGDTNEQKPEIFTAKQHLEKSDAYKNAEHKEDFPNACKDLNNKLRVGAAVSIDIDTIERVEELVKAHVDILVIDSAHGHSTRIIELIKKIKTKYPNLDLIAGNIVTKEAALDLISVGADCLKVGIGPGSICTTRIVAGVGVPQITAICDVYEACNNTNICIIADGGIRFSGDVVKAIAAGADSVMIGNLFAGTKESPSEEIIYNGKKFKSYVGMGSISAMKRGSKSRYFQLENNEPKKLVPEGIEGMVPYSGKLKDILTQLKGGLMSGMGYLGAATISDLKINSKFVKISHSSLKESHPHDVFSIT
The assay can be described thus: IMPDH inhibition, B. burgdorferi enzyme. Format: biochemical.

The target of a further assay is T3, HpIMPDH (Helicobacter pylori, UniProt P56088).
T3 sequence (P56088 1-481): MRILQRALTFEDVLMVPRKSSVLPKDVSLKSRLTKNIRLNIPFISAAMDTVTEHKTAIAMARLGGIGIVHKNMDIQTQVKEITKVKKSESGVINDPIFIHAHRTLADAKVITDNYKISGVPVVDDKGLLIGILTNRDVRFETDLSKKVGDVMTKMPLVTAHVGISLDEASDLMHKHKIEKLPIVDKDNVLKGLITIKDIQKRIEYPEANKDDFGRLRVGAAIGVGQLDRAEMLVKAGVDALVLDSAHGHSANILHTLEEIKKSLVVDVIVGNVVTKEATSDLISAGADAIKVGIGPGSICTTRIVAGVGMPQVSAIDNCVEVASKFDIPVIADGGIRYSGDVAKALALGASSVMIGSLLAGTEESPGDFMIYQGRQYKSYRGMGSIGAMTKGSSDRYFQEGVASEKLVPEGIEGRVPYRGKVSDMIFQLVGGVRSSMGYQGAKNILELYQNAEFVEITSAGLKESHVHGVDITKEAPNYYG
Put plainly: IMPDH inhibition, H. pylori enzyme. Format: biochemical.

Like-named read-outs stand apart in the source and are kept apart here.

Sequence of TfIMPDH (P50097 whole entry): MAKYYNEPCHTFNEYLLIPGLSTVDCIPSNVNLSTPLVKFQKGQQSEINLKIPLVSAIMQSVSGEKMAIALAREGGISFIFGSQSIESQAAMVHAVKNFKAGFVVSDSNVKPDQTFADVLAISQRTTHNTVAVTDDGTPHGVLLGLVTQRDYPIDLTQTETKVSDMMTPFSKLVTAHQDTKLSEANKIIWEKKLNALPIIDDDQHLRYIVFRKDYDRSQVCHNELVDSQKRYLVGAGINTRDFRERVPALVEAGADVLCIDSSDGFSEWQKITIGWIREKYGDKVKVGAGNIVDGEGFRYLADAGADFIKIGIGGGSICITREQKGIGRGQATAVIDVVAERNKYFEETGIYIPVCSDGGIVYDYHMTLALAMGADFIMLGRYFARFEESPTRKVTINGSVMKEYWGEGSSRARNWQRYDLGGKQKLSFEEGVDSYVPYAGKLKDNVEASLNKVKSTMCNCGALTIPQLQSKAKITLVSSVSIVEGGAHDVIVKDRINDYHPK
Sequence of SpIMPDH (P0C0H6 whole entry): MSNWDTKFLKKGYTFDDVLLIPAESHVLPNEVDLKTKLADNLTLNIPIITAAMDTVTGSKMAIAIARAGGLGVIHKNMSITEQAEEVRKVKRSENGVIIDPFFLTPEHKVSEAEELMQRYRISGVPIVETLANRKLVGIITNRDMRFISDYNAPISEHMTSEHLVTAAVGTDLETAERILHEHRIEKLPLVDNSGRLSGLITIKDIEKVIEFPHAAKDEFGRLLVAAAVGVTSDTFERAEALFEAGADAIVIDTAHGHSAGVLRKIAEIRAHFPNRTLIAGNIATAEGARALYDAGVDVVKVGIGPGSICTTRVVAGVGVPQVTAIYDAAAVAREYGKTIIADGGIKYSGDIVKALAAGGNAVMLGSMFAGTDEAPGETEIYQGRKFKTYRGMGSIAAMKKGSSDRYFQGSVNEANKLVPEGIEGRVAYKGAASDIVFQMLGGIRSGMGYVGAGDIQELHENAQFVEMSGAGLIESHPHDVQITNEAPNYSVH
Sequence of LdIMPDH (P21620 whole entry): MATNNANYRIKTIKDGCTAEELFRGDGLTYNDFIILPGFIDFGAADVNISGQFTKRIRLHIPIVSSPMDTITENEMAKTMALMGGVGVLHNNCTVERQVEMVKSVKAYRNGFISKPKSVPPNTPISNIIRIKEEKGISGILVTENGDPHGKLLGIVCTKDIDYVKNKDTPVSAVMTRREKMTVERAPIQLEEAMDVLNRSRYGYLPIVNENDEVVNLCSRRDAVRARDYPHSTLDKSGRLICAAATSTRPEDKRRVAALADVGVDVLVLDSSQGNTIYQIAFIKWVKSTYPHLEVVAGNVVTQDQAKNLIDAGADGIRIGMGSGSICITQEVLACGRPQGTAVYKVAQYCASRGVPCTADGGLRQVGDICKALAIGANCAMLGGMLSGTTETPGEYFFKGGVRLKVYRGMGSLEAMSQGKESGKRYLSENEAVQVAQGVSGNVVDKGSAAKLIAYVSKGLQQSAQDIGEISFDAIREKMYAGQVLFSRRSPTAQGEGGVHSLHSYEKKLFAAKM
Sequence of EcIMPDH-S250A/L444Y (P0ADG7 whole entry S250A/L444Y): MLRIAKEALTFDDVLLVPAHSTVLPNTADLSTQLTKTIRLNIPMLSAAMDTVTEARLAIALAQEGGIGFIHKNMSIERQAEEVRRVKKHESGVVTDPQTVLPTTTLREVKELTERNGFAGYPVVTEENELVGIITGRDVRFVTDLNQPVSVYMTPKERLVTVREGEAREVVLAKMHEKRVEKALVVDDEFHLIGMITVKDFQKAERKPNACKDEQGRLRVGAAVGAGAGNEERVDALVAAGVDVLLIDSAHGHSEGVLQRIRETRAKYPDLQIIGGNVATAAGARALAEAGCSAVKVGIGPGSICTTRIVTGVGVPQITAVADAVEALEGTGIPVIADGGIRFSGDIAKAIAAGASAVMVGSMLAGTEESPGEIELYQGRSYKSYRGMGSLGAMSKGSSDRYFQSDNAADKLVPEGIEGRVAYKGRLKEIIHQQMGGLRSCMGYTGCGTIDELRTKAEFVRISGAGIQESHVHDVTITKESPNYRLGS
Sequence of EcIMPDH (P0ADG7 whole entry): as the sequence (P0ADG7 whole entry S250A/L444Y) above, with A250S, Y444L counted along it
Sequence of EcIMPDH-S250A (P0ADG7 whole entry S250A): as the sequence (P0ADG7 whole entry S250A/L444Y) above, with Y444L counted along it

Consider `NC(=O)c1csc([C@@H]2O[C@H](CO)[C@@H](O)[C@H]2O)n1` [Tzf, tiazofurin], for which the Ki at LdIMPDH was 8.3 ± 0.7 mM; at EcIMPDH-S250A, 2.5 ± 0.3 mM; on SpIMPDH, 8 ± 1 mM; at EcIMPDH, 5.3 ± 0.6 mM; at TfIMPDH (read-out: Ki Tzf), 69 ± 9 mM; on CpIMPDH (read-out: Ki Tzf, ref Riera, et al., 2008) it was 1.5 ± 0.1 mM. The Ki on EcIMPDH-S250A/L444Y is 1.1 ± 0.2 mM; at BbIMPDH it was 1.1 ± 0.2 mM; on HpIMPDH, 1.3 ± 0.1 mM.

Turning to `Nc1ncnc2c1ncn2[C@@H]1O[C@H](COP(=O)(O)OP(=O)(O)O)[C@@H](O)[C@H]1O` [ADP], the inhibitory constant (Ki) is 15 ± 2 mM on LdIMPDH (read-out: Ki ADP, LdIMPDH); 0.1 ± 0.01 mM at EcIMPDH-S250A (read-out: Ki ADP, EcIMPDH-S250A); 13 ± 2 mM on SpIMPDH (read-out: Ki ADP, SpIMPDH); 10 ± 2 mM on EcIMPDH (read-out: Ki ADP, EcIMPDH); 31 ± 2 mM on TfIMPDH (read-out: Ki ADP); 42 ± 6 mM at CpIMPDH (read-out: Ki ADP, ref Riera, et al., 2008). Further, the Ki came to 4.1 ± 0.7 mM on EcIMPDH-S250A/L444Y (read-out: Ki ADP, EcIMPDH-S250A/L444Y); 7.4 ± 0.6 mM on BbIMPDH (read-out: Ki ADP, BbIMPDH); 6 ± 0.5 mM on HpIMPDH (read-out: Ki ADP, HpIMPDH).

Regarding `COc1c(C)c2c(c(O)c1C/C=C(\C)CCC(=O)O)C(=O)OC2` [mycophenolic acid], the “Fold more resistant than human IMPDH2 (TfIMPDH)” value at TfIMPDH (TfIMPDH vs human IMPDH2, ref Digits and Hedstrom, 2000) is given as 400 fold.
